Measurements published in publication PMC10652874, “Investigation into the mechanism of action of the antimicrobial peptide epilancin 15X” (Frontiers in Microbiology, 2023).

Tested on: S. carnosus TM300
Experiment: RNAseq differential gene expression
Type: cell-based, Staphylococcus carnosus
Description: For the RNAseq experiments, epilancin was added at sub-lethal concentration (0.5x MIC) to S. carnosus TM300 once the cultures reached an OD600 of 0.6. RNA was extracted 40 min after the treatment, using a FastRNA Pro Blue kit (MP Biomedicals). Both treated and parallel untreated samples were collected at the same time. Sequencing was performed at the Carver Biotechnology Center (UIUC). For RNAseq analysis, gene counts were read in to R (v3.1.1; [Team, 2014]), and 14/2441 genes were removed because they had fewer than 32 total counts across the six samples. edgeR’s (v3.6.7) TMM normalization ([Robinson and Oshlack, 2010]) plus negative binomial generalized log-linear model ([McCarthy et al., 2012]) was used to test for differential expression between treated and untreated groups, while accounting for pairing of U and T replicates from three different cultures. p-values were adjusted using the false discovery rate method ([Benjamini and Hochberg, 1995]).

Epilancin 15X
fold_change Sca_1501 (hypothetical protein): 2.75 | fold_change Sca_1502 (hypothetical protein): 4.86 | fold_change Sca_1504 (hypothetical protein): 11.43 | fold_change Sca_1505 (hypothetical protein): 11.29 | fold_change Sca_1506 (hypothetical protein): 11.77 | fold_change Sca_1507 (hypothetical protein): 12.4 | fold_change Sca_1508 (hypothetical protein): 10.53 | fold_change Sca_1509 (hypothetical protein): 0.5 | fold_change Sca_1523 (hypothetical protein): 2.05 | fold_change Sca_1526 (hypothetical protein): 2.58 | fold_change Sca_1532 (hypothetical protein): 3.3 | fold_change Sca_1533 (hypothetical protein): 3.51 | fold_change Sca_1534 (hypothetical protein): 2.71 | fold_change Sca_1535 (hypothetical protein): 2.45 | fold_change Sca_1536 (hypothetical protein): 2.13 | fold_change Sca_1587 (hypothetical protein): 2.19 | fold_change Sca_1588 (hypothetical protein): 2.2 | fold_change Sca_1643 (hypothetical protein): 2.32 | fold_change Sca_1645 (hypothetical protein): 2.04 | fold_change Sca_1650 (hypothetical protein): 2.26 | fold_change Sca_1667 (hypothetical protein): 3.97 | fold_change Sca_1668 (hypothetical protein): 3.55 | fold_change Sca_1674 (hypothetical protein): 2.34 | fold_change Sca_1675 (hypothetical protein): 3.21 | fold_change Sca_1681 (hypothetical protein): 2.25 | fold_change Sca_1686 (hypothetical protein): 4.82 | fold_change Sca_1687 (hypothetical protein): 4.15 | fold_change Sca_1689 (hypothetical protein): 2.35 | fold_change Sca_1737 (hypothetical protein): 2.07 | fold_change Sca_1738 (hypothetical protein): 2.11 | fold_change Sca_1755 (hypothetical protein): 3.06 | fold_change Sca_1788 (hypothetical protein): 3.57 | fold_change Sca_1804 (hypothetical protein): 5.16 | fold_change Sca_1805 (hypothetical protein): 2.14 | fold_change Sca_1807 (hypothetical protein): 2.04 | fold_change Sca_1815 (hypothetical protein): 0.5 | fold_change Sca_1838 (hypothetical protein): 2.29 | fold_change Sca_1862 (hypothetical protein): 0.49 | fold_change Sca_1869 (hypothetical protein): 2.26 | fold_change Sca_1903 (hypothetical protein): 4.81 | fold_change Sca_1904 (hypothetical protein): 2.54 | fold_change Sca_1905 (hypothetical protein): 2.54 | fold_change Sca_1906 (hypothetical protein): 2.34 | fold_change Sca_1917 (hypothetical protein): 2.88 | fold_change Sca_1954 (hypothetical protein): 2.15 | fold_change Sca_1959 (hypothetical protein): 7.97 | fold_change Sca_1992 (hypothetical protein): 2.15 | fold_change Sca_2001 (hypothetical protein): 2.07 | fold_change Sca_2004 (hypothetical protein): 2.83 | fold_change Sca_2009 (hypothetical protein): 4.15 | fold_change Sca_2014 (hypothetical protein): 2.23 | fold_change Sca_2018 (hypothetical protein): 2.95 | fold_change Sca_2020 (hypothetical protein): 2.38 | fold_change Sca_2021 (hypothetical protein): 2.73 | fold_change Sca_2022 (hypothetical protein): 2.89 | fold_change Sca_2023 (hypothetical protein): 3.49 | fold_change Sca_2024 (hypothetical protein): 8.09 | fold_change Sca_2051 (hypothetical protein): 2.03 | fold_change Sca_2066 (hypothetical protein): 2.09 | fold_change Sca_2098 (hypothetical protein): 2.16 | fold_change Sca_2099 (hypothetical protein): 2 | fold_change Sca_2122 (hypothetical protein): 2.08 | fold_change Sca_2131 (hypothetical protein): 4.04 | fold_change Sca_2132 (hypothetical protein): 2.49 | fold_change Sca_2133 (hypothetical protein): 2.15 | fold_change Sca_2136 (hypothetical protein): 3 | fold_change Sca_2141 (hypothetical protein): 2.34 | fold_change Sca_2182 (hypothetical protein): 0.5 | fold_change Sca_2186 (hypothetical protein): 2.4 | fold_change Sca_2187 (hypothetical protein): 2.82 | fold_change Sca_2188 (hypothetical protein): 5.77 | fold_change Sca_2193 (hypothetical protein): 5.14 | fold_change Sca_2202 (hypothetical protein): 2.52 | fold_change Sca_2207 (hypothetical protein): 2.06 | fold_change Sca_2209 (hypothetical protein): 2.42 | fold_change Sca_2213 (hypothetical protein): 2.61 | fold_change Sca_2215 (hypothetical protein): 3.52 | fold_change Sca_2221 (hypothetical protein): 2.48 | fold_change Sca_2222 (hypothetical protein): 2.24 | fold_change Sca_2226 (hypothetical protein): 3.16 | fold_change Sca_2228 (hypothetical protein): 3.64 | fold_change Sca_2229 (hypothetical protein): 3.47 | fold_change Sca_2230 (hypothetical protein): 2.6 | fold_change Sca_2231 (hypothetical protein): 2.37 | fold_change Sca_2235 (hypothetical protein): 2.04 | fold_change Sca_2236 (hypothetical protein): 2.08 | fold_change Sca_2253 (hypothetical protein): 0.5 | fold_change Sca_2268 (hypothetical protein): 3.5 | fold_change Sca_2269 (hypothetical protein): 3.56 | fold_change Sca_2273 (hypothetical protein): 11.9 | fold_change Sca_2275 (hypothetical protein): 3.1 | fold_change Sca_2284 (hypothetical protein): 0.49 | fold_change Sca_2295 (hypothetical protein): 4.48 | fold_change Sca_2296 (hypothetical protein): 2.39 | fold_change Sca_2297 (hypothetical protein): 2.21 | fold_change Sca_2299 (hypothetical protein): 5.46 | fold_change Sca_2301 (hypothetical protein): 2.01 | fold_change Sca_2334 (hypothetical protein): 5.35 | fold_change Sca_2337 (hypothetical protein): 2.1 | fold_change Sca_2358 (hypothetical protein): 2.95 | fold_change Sca_2370 (hypothetical protein): 2.53 | fold_change Sca_2373 (hypothetical protein): 3.45 | fold_change Sca_2379 (hypothetical protein): 3.04 | fold_change Sca_2384 (hypothetical protein): 2.31 | fold_change Sca_2385 (hypothetical protein): 3.04 | fold_change Sca_2386 (hypothetical protein): 2.57 | fold_change Sca_2398 (hypothetical protein): 19.58 | fold_change Sca_2399 (hypothetical protein): 20.62 | fold_change Sca_2424 (hypothetical protein): 2.19 | fold_change Sca_2425 (hypothetical protein): 2.2 | fold_change Sca_2426 (hypothetical protein): 3.85 | fold_change Sca_2435 (hypothetical protein): 6.09 | fold_change Sca_2436 (hypothetical protein): 5.9 | fold_change Sca_2437 (hypothetical protein): 4.25 | fold_change Sca_2457 (hypothetical protein): 3.07 | fold_change orf1 (hypothetical protein): 2.79 | fold_change ydfG (hypothetical protein): 5.22 | fold_change Sca_1639 (hypothetical protein, gene fmhA'): 2.76 | fold_change Sca_1638 (hypothetical protein, gene fmhA''): 3.24 | fold_change Sca_1124 (iron uptake regulatory protein, gene fur): 2.1 | fold_change geh (lipase (fragment 1), gene geh'): 2.82 | fold_change geh' (lipase (fragment 2), gene geh''): 2.62 | fold_change Sca_0327 (lysine decarboxlyase family protein): 5.96 | fold_change dnaK (molecular chaperone DnaK): 2.67 | fold_change moeA (molybdopterin biosynthesis protein MoeA): 2.6
